Counter-ions that a name gives are not always drawn. Marks after values point to notes of the source that are not given here.
Experiments:
[1] = system: mice; test: Bicuculline-induced seizures; assay type: in vivo; conditions: ip
[2] = system: rats; conditions: ip, […]
Procedure: (§2) The assays were carried out within the Epilepsy Therapy Screening Program (ETSP, previously known as the Anticonvulsant Screening Program, ASP), Epilepsy Branch, National Institute of Neurological and Communicative Disorders and Stroke, National Institutes of Health in Rockville, MD, USA [23].

[3] = system: mice; test: Picrotoxin-induced seizures; assay type: in vivo; conditions: ip
[4] = system: Salmonella enterica sv. Typhimurium TA 98; test: Ames test
Procedure: The test was performed according to a modified pre-incubation method [34]. The test compound was dissolved in DMSO and mixed with 20% (final concentration) cytochrome P450-enriched rat liver S9 post-mitochondrial fraction (20% w/v liver homogenate in 0.25 M Sucrose) in a phosphate buffer and added to an overnight bacterial culture. The mixture was divided into two samples and NADPH added to one of the samples to determine if the test compound requires cytochrome P450 bioactivation to be mutagenic. Both reactions (± NADPH) were incubated at 37 °C for 30 min and then added to a top agar solution containing 0.6% agar, 0.05 mM histidine and 0.05 mM biotin and plated on minimal glucose agar plates. Revertant colonies were counted after a 48 h-incubation at 37 °C. […] Acridine orange at 0.02 mM was also included as a positive control.

[5] = system: organotypic hippocampal slice cultures; test: Neuroprotection primary screen, excitotoxin NMDA; assay type: cell-based; conditions: NMDA 10 µM; 10 and 100 µM compound
Source text: Gompound 1 : ADD Number: ItSot+ Batct: lE- Date Started:
Compound 2 : ADD Number: Froso Batct: le Date Completed i l|26-M ar -20 1 O […]
Excitotoxin: lNmoa lnsult Duration: la Uouo Solvent:
Primary Screen Results: ffi […]
Al lruuoa rolrr,| A2lr'rrr,tOa r Olrrr,t * --.- A3 lr'rnroa r oprvr + lsaoot+ t oplrl+aesogo iopM
BZ lr.rrr,ron ropr,t , -_-_-- 83 lluoa topt',r * jffi 1 4 t oopM.€sroso 1 oolrM la+eota tooptu*aasoeo roffi […]
The 'Primary screen Experiment" is a qualitative assessment of the ability of a compound to prevent excrtotoxic cell death. organotypic hippocampal slice cultures are treated *ltn r.i-."iivr-o-"spartate (NMDA) or kainic acad (KA) to induce neuronal cell death' Propidium iodide (Pl), a membrane-imper.eant cornpouna, is included in all wells of the culture plate.
Dying cells have compromised *]lT^"Toj*::, ttr. er rnJy oin "" into the cell, intercatate with DNA and fluoresce. Thus, the intensity of the Pl fluorescence is proportional to the amount of cell death in lhe individual itices. ttippocampat slice cullures are treated with the excitotoxin alone, or *i er. inoi"ui"o above, with the excitotoxin and either one -qf]bar-a Investigalional compounds at the concentrations indicated. lf neuroprotectron occurs as a consequence of the added […]
been treated with the excitotoxin alone.
(§1) (1 picture or pasted object on this page, not shown here)

[6] = system: mice; test: Rotarod test (neurotoxicity); assay type: in vivo; conditions: ip, […];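 further: in vivo neurotoxicity screen run within the NIH Epilepsy Therapy Screening Program (ETSP, formerly Anticonvulsant Screening Program)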
[7] = system: P-glycoprotein (pregnane X receptor); test: In vitro metabolic gene induction studies; assay type: cell-based, human; conditions: up to 500 uM
Source text: Test 28 - In Vitro Metabolic Gene Induction Studies
Solventcode: DMSO Solvent Prep: Unit: uM
Cell line source: Puracyp Molecular 257.7590
Date Started: O5+eb-2O10 Date Completed: 15+eb-201O Weight:
Reference: Lamb book#8 pg.77 […]
lsoform Code: P{lycoprotein cell line: MDRI.C
Induc0on mechanism: pregnane X receptor
Concentration lnduction Cell […]
Note: 8ox ifdata is different.
. {calculated): slight Induotion (under tlffo fold) in vitro.
The highest response was less than that seen with 1ouM rifampicin.
as §1

[8] = system: anaesthetized rat; test: Effect on normal electrocardiogram; assay type: in vivo, rats;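 further: standard lead II ECG run at 50 mm/s, taken before dosing and at serial times up to 60 min after iv or 90 min after po administration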
Procedure: The effect on normal electrocardiogram. In vivo electrocardiographic investigations were carried out on using ASPEL ASCARD B5, (Aspel, Poland) apparatus, standard lead II, and paper speed of 50 mm/s. The ECG was recorded just prior to and also 1, 2, 3, 5, 10, 15, 20, 30, 40, 50, and 60 min following the iv or 5, 10, 20, 30, 40, 50, 60, 70, 80, 90 following the po administration of the compound.

[9] = system: guinea pigs; test: Corneal anesthesia; assay type: in vivo
Procedure: A. Corneal anesthesia. […] The corneal reflex was examined by irritation of right eye conjunctiva (studied eye) and a left eye conjunctiva (control eye) by horsehair. The strength of local anesthetic activity was determined from the moment of solution instillation to the moment of reflex return. The presence or lack of corneal reflex were assessed. The eye conjunctiva irritation was done 6 times (every 5 s) with the interval of 5 min during the first 30 min [31].

[10] = system: mice; test: Writhing test; assay type: in vivo; conditions: 30 mg/kg
Procedure: Inflammatory acute pain—writhing test. In this test, mice were placed individually into glass beakers and were allowed to habituate for the next 30 min. Then, each mouse was injected with tested compound, dissolved in saline (at a dose 30 mg/kg) or vehicle, and then placed back into the glass beaker for 30 min. To induce inflammatory pain, 0.9% acetic acid solution (Polskie Odczynniki Chemiczne, Poland) prepared in saline was injected by the intraperitoneal route. Mice were placed in the beakers again and were observed continuously for the next 30 min. Stereotypical writhes (lengthwise constrictions of the torso with a concomitant concave arching of the back) were counted over this period in drug-treated and control mice.

[11] = Rotarod test (neurotoxicity); assay type: in vivo, mice; conditions: mouse, in vivo; mice, ip, 0.25 h;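 further: in vivo neurotoxicity screen run within the NIH Epilepsy Therapy Screening Program (ETSP, formerly Anticonvulsant Screening Program)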
[12] = system: mice; test: animal or person; conditions: Mus musculus, ip, read-out: MES ED50
Procedure: as §2
The obtained compounds were screened for antiseizure activity and neurotoxicity in vivo within the Epilepsy Therapy Screening Program (ETSP, previously known as the Anticonvulsant Screening Program, ASP), Epilepsy Branch, National Institute of Neurological and Communicative Disorders and Stroke, National Institutes of Health in Rockville, MD, USA [23].

SMILES: CCC(CO)NCCOc1c(C)cccc1Cl (stereo not shown) [Compound 4, R,S-2-((2-(2-chloro-6-methylphenoxy)ethyl)amino)butan-1-ol]
- Bicuculline-induced seizures ED50 [1]: > 70 mg/kg
- LTG-resistant amygdala seizures: active at [2]: 15 mg/kg
- Picrotoxin-induced seizures ED50 [3]: > 70 mg/kg
- % of benzo[a]pyrene (+NADPH) control, + NADPH, Sample 1 ([4]; 0.10 mM): 7.8%
- % of benzo[a]pyrene (+NADPH) control, + NADPH, Sample 2 ([4]; 0.10 mM): 7.8%
- % of benzo[a]pyrene (+NADPH) control, − NADPH, Sample 1 ([4]; 0.10 mM): 5.5%
- % of benzo[a]pyrene (+NADPH) control, − NADPH, Sample 2 ([4]; 0.10 mM): 7.4%
- % of benzo[a]pyrene (+NADPH) control, + NADPH, Sample 1 ([4]; 0.20 mM): 5.2%
- % of benzo[a]pyrene (+NADPH) control, + NADPH, Sample 2 ([4]; 0.20 mM): 7.4%
- % of benzo[a]pyrene (+NADPH) control, − NADPH, Sample 1 ([4]; 0.20 mM): 5.4%
- % of benzo[a]pyrene (+NADPH) control, − NADPH, Sample 2 ([4]; 0.20 mM): 5.3%
- % of benzo[a]pyrene (+NADPH) control, + NADPH, Sample 1 ([4]; 0.50 mM): 5.2%
- % of benzo[a]pyrene (+NADPH) control, + NADPH, Sample 2 ([4]; 0.50 mM): 7%
- % of benzo[a]pyrene (+NADPH) control, − NADPH, Sample 1 ([4]; 0.50 mM): 4.9%
- % of benzo[a]pyrene (+NADPH) control, − NADPH, Sample 2 ([4]; 0.50 mM): 6.7%
- mutagenicity ([4]; 0.1–0.5 mM, compared to DMSO solvent control): non-mutagenic
- Test Result (neuroprotection) [5]: No Neuroprotection
- Rotarod TD50 ([6]; female mice): 40.11 (36.49–42.98) mg/kg
- Rotarod TD50 ([6]; mice): 54.99 (52.95–56.94) mg/kg
- induction [7]: slight induction

SMILES: CCC(CO)NCCOc1c(C)cccc1Cl (stereo not shown) [KM-408, R,S-2-((2-(2-chloro-6-methylphenoxy)ethyl)amino)butan-1-ol hydrochloride]
- PQ ([8]; 5 mg/kg iv, 0 min): 50.5 ± 2.6 ms
- QT ([8]; 5 mg/kg iv, 0 min): 56.8 ± 3.8 ms
- PQ ([8]; 5 mg/kg iv, 1 min): 59.5 ± 5.3 ms
- QT ([8]; 5 mg/kg iv, 1 min): 58.0 ± 3.4 ms
- PQ ([8]; 5 mg/kg iv, 3 min): 54.8 ± 2.9 ms
- QT ([8]; 5 mg/kg iv, 3 min): 60.0 ± 2.8 ms
- PQ ([8]; 5 mg/kg iv, 5 min): 54.4 ± 2.3 ms
- QT ([8]; 5 mg/kg iv, 5 min): 56.8 ± 3.9 ms
- PQ ([8]; 5 mg/kg iv, 10 min): 54.0 ± 1.9 ms
- QT ([8]; 5 mg/kg iv, 10 min): 56.2 ± 4.2 ms
- PQ ([8]; 5 mg/kg iv, 15 min): 54.4 ± 1.9 ms
- QT ([8]; 5 mg/kg iv, 15 min): 55.2 ± 4.1 ms
- PQ ([8]; 5 mg/kg iv, 20 min): 54.4 ± 2.0 ms
- QT ([8]; 5 mg/kg iv, 20 min): 56.0 ± 4.0 ms
- PQ ([8]; 5 mg/kg iv, 30 min): 54.8 ± 1.7 ms
- QT ([8]; 5 mg/kg iv, 30 min): 57.2 ± 3.7 ms
- PQ ([8]; 5 mg/kg iv, 40 min): 53.6 ± 2.2 ms
- QT ([8]; 5 mg/kg iv, 40 min): 57.0 ± 3.7 ms
- PQ ([8]; 5 mg/kg iv, 50 min): 53.6 ± 2.6 ms
- QT ([8]; 5 mg/kg iv, 50 min): 58.8 ± 3.4 ms
- PQ ([8]; 5 mg/kg iv, 60 min): 53.6 ± 1.5 ms
- QT ([8]; 5 mg/kg iv, 60 min): 56.0 ± 4.0 ms
- influence on heart rate or ECG intervals ([8]; 50 mg/kg po): did not influence
- PQ ([8]; 50 mg/kg po, 0 min): 55.6 ± 1.8 ms
- QT ([8]; 50 mg/kg po, 0 min): 55.2 ± 3.9 ms
- PQ ([8]; 50 mg/kg po, 5 min): 59.2 ± 1.9 ms
- QT ([8]; 50 mg/kg po, 5 min): 60.0 ± 0.0 ms
- PQ ([8]; 50 mg/kg po, 10 min): 59.6 ± 2.1 ms
- QT ([8]; 50 mg/kg po, 10 min): 59.2 ± 0.8 ms
- PQ ([8]; 50 mg/kg po, 20 min): 59.0 ± 1.0 ms
- QT ([8]; 50 mg/kg po, 20 min): 58.0 ± 2.0 ms
- PQ ([8]; 50 mg/kg po, 30 min): 57.4 ± 1.2 ms
- QT ([8]; 50 mg/kg po, 30 min): 58.4 ± 1.0 ms
- PQ ([8]; 50 mg/kg po, 40 min): 59.2 ± 1.5 ms
- QT ([8]; 50 mg/kg po, 40 min): 59.2 ± 0.8 ms
- PQ ([8]; 50 mg/kg po, 50 min): 58.4 ± 1.0 ms
- QT ([8]; 50 mg/kg po, 50 min): 58.8 ± 1.2 ms
- PQ ([8]; 50 mg/kg po, 60 min): 58.4 ± 1.6 ms
- QT ([8]; 50 mg/kg po, 60 min): 58.8 ± 1.2 ms
- PQ ([8]; 50 mg/kg po, 70 min): 59.6 ± 1.0 ms
- QT ([8]; 50 mg/kg po, 70 min): 61.2 ± 4.2 ms
- PQ ([8]; 50 mg/kg po, 80 min): 59.6 ± 0.4 ms
- QT ([8]; 50 mg/kg po, 80 min): 60.0 ± 0.0 ms
- PQ ([8]; 50 mg/kg po, 90 min): 59.6 ± 1.3 ms
- QT ([8]; 50 mg/kg po, 90 min): 60.0 ± 0.0 ms
- PQ ([8]; 300 mg/kg po, 0 min): 51.6 ± 3.6 ms
- QT ([8]; 300 mg/kg po, 0 min): 58.0 ± 2.0 ms
- PQ ([8]; 300 mg/kg po, 5 min): 51.2 ± 3.4 ms
- QT ([8]; 300 mg/kg po, 5 min): 57.2 ± 2.0 ms
- PQ ([8]; 300 mg/kg po, 10 min): 54.8 ± 2.1 ms
- QT ([8]; 300 mg/kg po, 10 min): 55.6 ± 2.0 ms
- PQ ([8]; 300 mg/kg po, 20 min): 55.2 ± 2.2 ms
- QT ([8]; 300 mg/kg po, 20 min): 58.0 ± 2.0 ms
- PQ ([8]; 300 mg/kg po, 30 min): 55.2 ± 2.2 ms
- QT ([8]; 300 mg/kg po, 30 min): 58.0 ± 2.0 ms
- PQ ([8]; 300 mg/kg po, 40 min): 55.2 ± 2.1 ms
- QT ([8]; 300 mg/kg po, 40 min): 59.2 ± 0.8 ms
- PQ ([8]; 300 mg/kg po, 50 min): 55.8 ± 2.8 ms
- QT ([8]; 300 mg/kg po, 50 min): 60.0 ± 0.0 ms
- PQ ([8]; 300 mg/kg po, 60 min): 56.0 ± 2.8 ms
- QT ([8]; 300 mg/kg po, 60 min): 59.2 ± 0.8 ms
- PQ ([8]; 300 mg/kg po, 70 min): 55.4 ± 2.3 ms
- QT ([8]; 300 mg/kg po, 70 min): 60.0 ± 0.0 ms
- PQ ([8]; 300 mg/kg po, 80 min): 56.0 ± 2.4 ms
- QT ([8]; 300 mg/kg po, 80 min): 60.0 ± 0.0 ms
- PQ ([8]; 300 mg/kg po, 90 min): 56.0 ± 2.4 ms
- QT ([8]; 300 mg/kg po, 90 min): 59.6 ± 0.4 ms
- Inhibition of pain reaction ([9]; 0.5%, 5 min): 94.4*** %
- Inhibition of pain reaction ([9]; 0.5%, 30 min): 8.3%
- Inhibition of pain reaction ([9]; […], 5 min): 80.5*** %
- corneal anesthesia: active at ([9]; guinea pigs): 0.125%
- effect on acetic acid-induced writhing [10]: not significantly effective
- TD50 [11]: 64.3 mg/kg
- ED50 [12]: 13.3 mg/kg

Reference: article PMC9889419 (Pharmacological Reports, 2022)
